Legend:
[1] = test system: dendritic cells derived from C57BL/6 mouse bone marrow cells; experiment: Expression of costimulatory molecules CD40, CD80, CD86 by flow cytometry (MFI) on matured dendritic cells; type: cell-based
Experimental: (§1) The C57BL/6 mouse bone marrow cells were cultured for 7 days in 10% FCS-RPMI1640 medium containing 20 ng/mL GM-CSF (Peprotech, origin: rabbit) and 20 ng/mL IL-4 (Peprotech, origin: rabbit) so as to cause the cells to differentiate into dendritic cells. Subsequently, 20 ng/mL TNF-α (Peprotech, origin: rabbit) was added for maturation. Treatment with NK026680 was performed by adding 50 ng/mL NK026680 on days 2 and 4 of culture and adding 250 ng/mL NK026680 on day 6 of culture.
The BALB/c mouse-derived spleen cell extract was added to dendritic cells derived from bone marrow cells which were collected from the C57BL/6 mouse, thereby causing cells to present a BALB/c antigen. The effect of incorporating the BALB/c antigen was confirmed by measuring the expression of 1-Ad (antibody: BD pharmingen), which is a BALB/c major histocompatibility complex (MHC), by flow cytometry. At this time, cells were cultured in the presence or the absence of NK026680, and the cells were allowed to mature with TNF-α (Peprotech, origin: rabbit). Maturation of dendritic cells was confirmed by flow cytometric analysis of the expression of the mature dendritic cell marker. Fluorescence-labeled antibodies against CD40, CD80 and CD86 costimulatory molecules were reacted in NK026680-treated dendritic cells (NK-DC) of the present invention and untreated dendritic cells (CTR-DC). Mean fluorescence intensity (MFI) was measured by flow cytometry, so that the expression levels of CD40, CD80, and CD86 were compared.

[2] = test system: graft-versus-host disease model; conditions: Non-patent Document 5; cited from earlier work
[3] = test system: autoimmune angiitis model; conditions: Non-patent Document 6; cited from earlier work
[4] = test system: dendritic cells; conditions: dendritic cells cultured in the presence of the compound; cited from earlier work
[5] = test system: dendritic cells derived from C57BL/6 mouse bone marrow cells; experiment: IL-6 and IL-12p40 in culture supernatant of dendritic cells by ELISA; type: cell-based
Experimental: as §1
In this Example 2, in a manner similar to that in Example 1, the dendritic cells of the present invention treated with NK026680 and untreated dendritic cells, which had been obtained by differentiation and maturation of C57BL/6 mouse bone marrow cells, were obtained. After stimulation with TNF, cells were cultured for 24 hours. The thus obtained culture supernatant was collected, and then the concentrations of immune-response-stimulating cytokines, IL-6 and IL-12p40, were measured by ELISA (BD bioscience) (n=3).

For COc1ccc(-c2ccnc3nc(NC(=O)N[C@@H](C)CCCC(C)(C)O)nn23)cc1 [NK026680, (S)-(+)-1-(5-hydroxy-1,5-dimethylhexyl)-3-[7-(4-methoxyphenyl)-[1,2,4]triazolo[1,5-a]pyrimidin-2-yl]urea], the “CD40 (MFI)” value ([1]; NK026680 50 ng/mL on days 2 and 4, 250 ng/mL on day 6, BALB/c antigen, matured with TNF-α, untreated cells 244) was 159 MFI, the “CD86 (MFI)” value ([1]; NK026680 50 ng/mL on days 2 and 4, 250 ng/mL on day 6, BALB/c antigen, matured with TNF-α, untreated cells 356) was 217 MFI and the “CD80 (MFI)” value ([1]; NK026680 50 ng/mL on days 2 and 4, 250 ng/mL on day 6, BALB/c antigen, matured with TNF-α, untreated cells 659) was 320 MFI. The “expression levels of CD40, CD80 and CD86 compared with untreated dendritic cells (CTR-DC)” value ([1]; in words) was “lower”, the “effects against a graft-versus-host disease model” value [2] was “exhibited effects” and the “effects against an autoimmune angiitis model” value [3] was “exhibited effects”. The “expression level of a costimulatory molecule” value [4] was “decreased”, the “IL-6” value ([5]; culture supernatant 24 hours after TNF stimulation, n=3, untreated cells 1235 ± 272) was 219 ± 94 pg/mL and the “IL-12p40” value ([5]; culture supernatant 24 hours after TNF stimulation, n=3, untreated cells 1555 ± 650) was 347 ± 100 pg/mL. For the same molecule, the “concentrations of IL-6 and IL-12p40 in culture supernatant compared with untreated dendritic cells” value ([5]; in words) was “lower”.

Reference: patent US20150139971A1, “METHOD FOR PREPARING REGULATORY DENDRITIC CELLS” (NIPPON KAYAKU KABUSHIKI KAISHA, priority 2010, published 2015)
